Test results reported in patent publication US20210147481A1, “PEPTIDE-BASED INHIBITORS OF MARK FAMILY PROTEINS” (Ohio Universtiy, priority 2017, published 2021).
Peptide text beside a SMILES is read from it.

Assays:
[1] = target: MARK2 (Homo sapiens, UniProt Q7KZI7); assay: Validation of tR1 as a substrate for MARK2 (western blot, α-pTau Ser262); type: biochemical; conditions: ATP, 60 minutes at 32° C.
Excerpt: Once an otherwise competent kinase-substrate pair was developed for a working phosphorylation assay, tR1 was validated as a substrate for MARK2. The tR1 peptide (NVKSKIGSTENLK [SEQ ID NO: 1]) was synthesized using standard Fmoc-based solid-phase synthesis procedures and the final sequence was either acylated (tR1) or labeled with 5-carboxyfluorescein (tR1) on its N-terminus (FIG. 6A). See the experimental procedures, below, for details on the synthesis, labeling, purification and characterization of tR1 peptides. To evaluate whether tR1 is recognized as a substrate by MARK2, MARK2 was incubated with ATP in the presence of varying concentrations of tR1 peptide for 60 minutes at 32° C. in phosphorylation buffer. Following incubation, phosphorylated tR1 peptides were separated by SDS-PAGE and identified by Western blot using antibodies specific for hTau pSer262 (FIG. 6B). Western blot analysis confirmed tR1 as a substrate of MARK2 by the presence of a sharp band at the highest concentration (100 μM).
Phosphorylation assays were performed in 30 μL phosphorylation buffer (50 mM Tris-HCl, 5 mM MgCl2, 2 mM EGTA, 0.5 mM DTT, 0.5 mM benzamidine HCl, 0.5 mM PMSF, pH 8.0) and depending on the experimental conditions. […] Images were acquired by a Bio-Rad Gel Doc EZ imager and the band intensity was quantified using Image Lab Software c5.2.1 (Bio-Rad).

[2] = tested on: kinases that phosphorylate tau at Thr231; assay: Immunofluorescence of tau Thr231 phosphorylation in neurons; type: cell-based, rat
[3] = In vitro peptide stability in RPMI medium with 25% (v/v) human serum (RP-HPLC); type: in vitro ADME; conditions: 37° C., up to 24 hours
Method: Stock peptide solutions for use in stability assays were prepared by dissolving tR1 to a final concentration of 5 mg/mL in dimethyl sulfoxide (DMSO). For stability tests, 2 μL of stock tR1 peptides were added to 198 μL pre-warmed RPMI medium supplemented with 25% (v/v) heat-inactivated human AB serum or neurobasal (NB) media at a final concentration of 50 μg/mL. Each reaction was subsequently incubated at 37° C. for the indicated times. Following incubation, 400 μL aqueous trichloroacetic acid (15%, w/v) was added to each reaction and the samples were immediately cooled on ice for 15 minutes. The samples were then centrifuged 3× at 14,000 rpm to remove precipitated proteins. […] The background signal was subtracted from each respective spectrum and the fraction of intact peptide was quantified from product peak integration normalized to undigested controls. […]
A major limitation to the therapeutic efficacy of peptides is their susceptibility to proteolytic degradation. Indeed, short peptides generally have a serum half-life measured in minutes. The in vitro stability of tR1 peptides in the presence of proteolytic enzymes was determined. […] Following the incubation, the reactions were quenched using haloacetic acids and the extent of degradation was quantified by analytical HPLC.

[4] = tested on: rat primary cortical neurons; conditions: 72 hours
Method: Primary cells were isolated from embryonic Sprauge-Dawley rats and cultured as described.
High density rat primary cortical neurons (5-7 DIV) cultured in polyE coated 24-well plates were used for this assay. Culture media was switched to neurobasal without B27 supplement (NB-B27) before the addition of tR1 peptides. […] For the MTT assay, 50 μg/mL MTT working solution was diluted from a 5 mg/mL MTT stock (water solution made from MTT powder, Alfa Aesar L11939) in NB-B27. After aspirating out the culture media, cells were incubated with 0.2 mL 50 μg/mL MTT working solution for one hour at 37° C. Then, the MTT solution was aspirated and replaced with 0.5 mL DMSO. The whole DMSO solution was transferred to a cuvette and read in the spectrophotometer (Cary UV 50, Varian) at 550 nm with subtraction of the reading at 650 nm wavelength.

MARK2, sequence (Q7KZI7 whole entry): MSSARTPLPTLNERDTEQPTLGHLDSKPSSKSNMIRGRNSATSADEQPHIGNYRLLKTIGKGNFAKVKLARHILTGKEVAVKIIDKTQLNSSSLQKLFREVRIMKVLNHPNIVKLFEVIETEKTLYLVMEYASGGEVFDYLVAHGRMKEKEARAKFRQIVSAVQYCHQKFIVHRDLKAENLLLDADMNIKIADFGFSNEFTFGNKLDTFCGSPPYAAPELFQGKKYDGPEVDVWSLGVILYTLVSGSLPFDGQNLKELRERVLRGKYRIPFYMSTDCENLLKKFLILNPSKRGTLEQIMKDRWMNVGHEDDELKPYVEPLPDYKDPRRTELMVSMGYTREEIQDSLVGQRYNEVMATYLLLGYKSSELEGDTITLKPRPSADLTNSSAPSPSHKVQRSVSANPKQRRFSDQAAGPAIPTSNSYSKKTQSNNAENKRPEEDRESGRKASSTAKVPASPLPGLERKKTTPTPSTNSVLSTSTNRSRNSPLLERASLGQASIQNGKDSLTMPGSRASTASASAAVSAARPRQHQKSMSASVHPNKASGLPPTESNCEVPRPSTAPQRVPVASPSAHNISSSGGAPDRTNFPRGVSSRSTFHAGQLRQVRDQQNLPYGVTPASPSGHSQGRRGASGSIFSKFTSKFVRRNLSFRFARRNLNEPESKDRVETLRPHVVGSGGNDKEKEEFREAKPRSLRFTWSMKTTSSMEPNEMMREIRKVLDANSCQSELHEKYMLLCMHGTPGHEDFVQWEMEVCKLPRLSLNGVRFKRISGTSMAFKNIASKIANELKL

CC[C@H](C)[C@H](NC(=O)[C@H](CCCCN)NC(=O)[C@H](CO)NC(=O)[C@H](CCCCN)NC(=O)[C@@H](NC(=O)[C@H](CC(N)=O)NC(C)=O)C(C)C)C(=O)NCC(=O)N[C@@H](CO)C(=O)N[C@H](C(=O)N[C@@H](CCC(=O)O)C(=O)N[C@@H](CC(N)=O)C(=O)N[C@@H](CC(C)C)C(=O)N[C@@H](CCCCN)C(N)=O)[C@@H](C)O [tR1, NVKSKIGSTENLK] (Ac-NVKSKIGSTENLK-NH2)
phosphorylation of tR1 by MARK2 (western blot) ([1]; 0, 1, or 10 μM peptide): Phosphorylation was not seen
phosphorylation of tR1 by MARK2 (western blot) ([1]; 100 μM peptide): sharp band
level of pTau Thr231 compared to untreated control cells ([2]; 30 μM tR1 and 100 μM CLQ, no PAO): did not show any significant loss of pTau Thr231
effect on PAO-mediated inhibition of tau Thr231 phosphorylation ([2]; tR1 with PAO, even in the presence of CLQ): did not influence the PAO-mediated inhibition of tau Thr231 phosphorylation
fraction of intact tR1 (stable) [3]: > 90%
remaining at 24 h, 50 μg/mL ([3]; RPMI medium with 25% (v/v) heat-inactivated human AB serum, read-out: fraction of intact tR1 (stable)): > 90%
concentrations at which tR1 is non-toxic ([4]; MTT): up to 300 μM
loss in cell viability ([4]; highest concentrations of tR1 (0-300 μM)): < 5%
